Source: BindingDB's records for doi:10.1101/2020.09.12.293498 (Pfizer, 2020)

Columns and labels:
[1] = target: Replicase polyprotein 1ab (Avian infectious bronchitis virus (strain Beaudette CK), UniProt P0C6Y2); assay: FRET protease activity assay
Experimental: (§1) PF-00835231 was evaluated against 3CLpro from a variety of other coronaviruses representing alpha, beta and gamma groups of Coronaviridae, using biochemical F rster Resonance Energy Transfer (FRET) protease activity assays.

[2] = target: Replicase polyprotein 1ab (Human coronavirus HKU1 (isolate N5), UniProt P0C6X4); assay: FRET protease activity assay
Experimental: as §1

Replicase polyprotein 1ab (Human coronavirus HKU1 (isolate N5), UniProt P0C6X4), sequence (P0C6X4 3285-3587 limits assumed): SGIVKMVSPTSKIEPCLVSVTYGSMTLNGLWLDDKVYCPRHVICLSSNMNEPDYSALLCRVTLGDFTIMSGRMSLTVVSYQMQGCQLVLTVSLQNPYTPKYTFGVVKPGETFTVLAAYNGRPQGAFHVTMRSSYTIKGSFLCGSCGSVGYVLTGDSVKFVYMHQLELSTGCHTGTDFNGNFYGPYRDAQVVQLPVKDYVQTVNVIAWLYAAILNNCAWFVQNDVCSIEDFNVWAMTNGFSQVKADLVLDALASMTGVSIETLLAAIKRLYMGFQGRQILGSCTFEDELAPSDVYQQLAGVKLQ
Replicase polyprotein 1ab (Avian infectious bronchitis virus (strain Beaudette CK), UniProt P0C6Y2), sequence (P0C6Y2 2780-3086 limits assumed): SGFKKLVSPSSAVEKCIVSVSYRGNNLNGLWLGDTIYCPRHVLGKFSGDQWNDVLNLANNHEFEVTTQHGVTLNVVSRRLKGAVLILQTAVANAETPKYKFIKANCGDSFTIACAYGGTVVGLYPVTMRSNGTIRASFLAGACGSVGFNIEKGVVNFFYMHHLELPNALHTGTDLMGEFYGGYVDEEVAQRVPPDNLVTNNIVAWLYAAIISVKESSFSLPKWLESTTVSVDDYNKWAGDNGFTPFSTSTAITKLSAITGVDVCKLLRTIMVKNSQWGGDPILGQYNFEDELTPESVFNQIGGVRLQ

SMILES: COc1cccc2[nH]c(C(=O)N[C@@H](CC(C)C)C(=O)N[C@@H](C[C@@H]3CCNC3=O)C(=O)CO)cc12 [WO2005113580-Ex-02]
- Ki [1]: 4 nM
- Ki [2]: 0.85 nM
